Laboratory results as given in patent US20120082736A1, “Small-molecule TNF modulator to reduce the side effects of chemotherapy and radiotherapy” (GeneBlue Corporation, priority 2010, published 2012).

Key:
BDF1 mice = experiment: Cisplatin side-effect time course / MTD, ip daily ×5 (Example 1); type: in vivo; conditions: ip daily ×5, BDF1 mice
Protocol: First, 0.25 mL of 0.2 mg/mL cisplatin (eq to 2.5 mg/kg) in saline was injected ip, daily ×5, in BDF1 mice. Saline was used as a control. Two mice were used per group and sacrificed on day 0 (control), 2, 4, 7, 9, 11, and 15. In addition, 2 BDF1 mice were injected with a higher dose, 0.25 mL of 0.4 mg/mL cisplatin (eq to 5 mg/kg), daily ×5. Unfortunately, for the higher dose, 1 mouse died on day 7 and the second was euthanized on day 14. This confirms the MTD of cisplatin was <5 mg/kg by ip daily ×5 as shown in the MTD study.
To further narrow down the exact day between day 4 and 7, a follow-up animal study was conducted employing cisplatin at 2.5 mg/kg and the mice were sacrificed on day 0 (control), 5, 6, and 7 (2 mice per point).

[1] = tested on: BDF1 female mice treated with cisplatin; experiment: Effect of pretreatment on BUN/creatinine, AST/ALT, WBC/platelet in blood of cisplatin-treated mice (Example 2); type: in vivo; conditions: blood day 6; for platelet count, effect of pretreatment: vs Gp 1 (Control)
Protocol: Gp 1: medium (saline). Gp 2: saline followed by cisplatin (2.5 mg/kg) 30 min later. Gp 3: UTL-5g (15 mg/kg) followed by cisplatin (2.5 mg/kg) 30 min later. Gp 4: UTL-5g (30 mg/kg) followed by cisplatin (2.5 mg/kg) 30 min later. Gp 5: UTL-5g (60 mg/kg) followed by cisplatin (2.5 mg/kg) 30 min later. Gp 6: amifostine (200 mg/kg) followed by cisplatin (2.5 mg/kg) 30 min later; Gp 7: saline followed by cisplatin (5 mg/kg) 30 min later. Gp 1-Gp 6 were daily ×5, but Gp 7 was by single dose on day 0 only. StDev is shown for each Gp (n=5 for each group except for Gp 7, n=3). ** two-tailed p<0.005 vs medium control by Student's t-test.
(§1) Gp 1: medium (saline). Gp 2: saline followed by cisplatin (2.5 mg/kg) 30 min later. Gp 3: UTL-5g (15 mg/kg) followed by cisplatin 30 min later. Gp 4: UTL-5g (30 mg/kg) followed by cisplatin (2.5 mg/kg) 30 min later. Gp 5: UTL-5g (60 mg/kg) followed by cisplatin (2.5 mg/kg) 30 min later. Gp 6: amifostine (200 mg/kg) followed by cisplatin (2.5 mg/kg) 30 min later. Gp 7: saline followed by cisplatin (5 mg/kg) 30 min later. Gp 1-Gp 6 were daily ×5, but Gp 7 was by single dose on day 0 only. StDev is shown for each Gp (n=5 for each group except n=4 for Gp 7). * P<0.05, ** p<0.005 vs. medium control (Gp 1) by Student's t-test (two-tailed).
as §1, with “p<0.005, *** p<0.0005” for “p<0.005”, “control” for “control (Gp 1)”
BDF1 female mice (average wt ˜20 g/mouse) were randomly divided into the following groups (5 mice per group) and each treated daily ×5 (starting from day 0) by ip injection (0.25 mL/mouse), except in Gp 7, each was treated by a single dose ip injection (0.25 mL/mouse) on day 0 only, as described below • Gp 1: medium (saline) followed by medium (saline) 30 min later • Gp 2: medium (saline) followed by cisplatin (2.5 mg/kg) 30 min later • Gp 3: UTL-5g (15 mg/kg) followed by cisplatin (2.5 mg/kg) 30 min later • Gp 4: UTL-5g (30 mg/kg) followed by cisplatin (2.5 mg/kg) 30 min later • Gp 5: UTL-5g (60 mg/kg) followed by cisplatin (2.5 mg/kg) 30 min later • Gp 6: amifostine (200 mg/kg) followed by cisplatin (2.5 mg/kg) 30 min later • Gp 7: medium (saline) followed by cisplatin (5 mg/kg) 30 min later (single dose on Day 0 only)
Preparation of the test samples are described below: • Cisplatin: Cisplatin was dissolved in saline (0.2 and 0.4 mg/mL in saline) for 2.5 and 5 mg/kg ip injection. • UTL-5g: The stock solution of UTL-5g was first dissolved in DMSO and equal volume of Cremophor/propylene glycol (60/40 v/v) was added to make a stock solution. Immediately before the injection, saline was added to this temporary solution at a 90:10 v/v ratio and mixed thoroughly. Three concentrations for ip injection were prepared (1.25, 2.5, and 5 mg/mL) so that the doses are equivalent to 15, 30, and 60 mg/kg with a 0.25 mL injection. • Amifostine: The stock solution of amifostine was dissolved in saline to the desired concentration (16 mg/mL) for the 200 mg/kg injection.
Cardiac puncture was used to obtain blood from each mouse on day 6. To assess liver/kidney protection by UTL-5g, all blood samples were analyzed for BUN, creatinine, AST, and ALT by the chemistry lab at Henry Ford Health System. Unopette® (Becton Dickinson, Franklin Lakes, N.J.) diluting systems and a hemocytometer were used to assess the effect of UTL-5g on WBC and platelet counts in blood.

TNF-α = TNF-α levels in plasma of cisplatin-treated mice (commercial assay kit, eBioscience); type: in vivo; conditions: cisplatin 2.5 mg/kg ip daily ×5; pooled plasma day 6
Protocol: FIG. 5. Effect of UTL-5g on TNF-α levels in plasma for mice treated with cisplatin. Gp 1, medium control (saline) only; Gp 2, saline followed by cisplatin (2.5 mg/kg) 30 min later; Gp 3, UTL-5g (15 mg/kg) followed by cisplatin 30 min later; Gp 4, UTL-5g (30 mg/kg) followed by cisplatin 30 min later; Gp 5, UTL-5g (60 mg/kg) followed by cisplatin 30 min later. Y axis represents the relative levels of TNF-α assuming 0% for Gp 1 (Control). Level of TNF-α on the figure is based on the average of 2 readings. […]
Using the samples from the same animal study, TNF-α levels in plasma were analyzed. […]

[2] = within 1 h, cited from earlier work
tumor cells = conditions: animal data; cited from earlier work
[3] = cisplatin 2.5 mg/kg ip daily ×5 or 5 mg/kg single dose
[4] = cisplatin 5 mg/kg ip single dose day 0 (Gp 7) vs Control (Gp 1)
[5] = ip 30 min before cisplatin 2.5 mg/kg, daily ×5, UTL-5g 15, 30, 60 mg/kg, amifostine 200 mg/kg

Row | SMILES | MTD of cisplatin (BDF1 mice) [mg/kg] | ALT levels, effect of cisplatin [1, 3] | AST levels, effect of cisplatin [1, 3] | BUN levels, effect of cisplatin [1, 3] | creatinine, effect of cisplatin [1, 3] | WBC count, effect of cisplatin [1, 4] | platelet count, effect of cisplatin [1, 4] | TNF-α in plasma, effect of cisplatin (TNF-α) | BUN levels, effect of pretreatment [1, 5] | creatinine, effect of pretreatment [1, 5] | platelet count, effect of pretreatment [1, 5] | platelet count, effect of pretreatment ([1]; ip 30 min before cisplatin 2.5 mg/kg, daily ×5, UTL-5g 15, 30, 60 mg/kg, amifostine 200 mg/kg, listed as Amifostine) | cleared from the plasma, share of the peak concentration ([2]; amifostine) [%] | metabolite cleared from the plasma, share of the peak concentration ([2]; metabolite of amifostine) [%] | tumor-protective effect (tumor cells)
1 | N.N.[Cl][Pt][Cl] [cisplatin, cis-dichlorodiammine platinum, reference compound] | < 5 | elevated by cisplatin | elevated by cisplatin | elevated by cisplatin in a dose-dependent manner | Essentially the same results | lower WBC count as compared to Control | did decrease platelet count significantly | elevated by cisplatin | – | – | – | – | – | – | –
2 | NCCCNCCSP(=O)(O)O [amifostine, reference compound] | – | – | – | – | – | – | – | – | essentially the same reduction | Essentially the same results | statistically significant decrease on platelet count | does not have similar positive effect on platelet production | 95 | 50 | may have tumor-protective effect
